Read-outs that look alike come from different tables or passages of the source.

In patent publication US7183252B2, “Indole peptidomimetics as thrombin receptor antagonists” (Ortho-McNeil Pharmaceutical, Inc., priority 1999, dated 2007) one finds IC50 data, which are given here for 28 compounds.

Assay [1] has as its target T1, thrombin receptor (PAR-1) (Homo sapiens, UniProt P25116).
T1 construct: CHRF membranes (Jones, Biochim. Biophys. Acta 1992, 1136, 272) are thawed from −70° C; endogenous in cells; host or cells: CHRF cell membranes
T1 sequence (P25116 22-425): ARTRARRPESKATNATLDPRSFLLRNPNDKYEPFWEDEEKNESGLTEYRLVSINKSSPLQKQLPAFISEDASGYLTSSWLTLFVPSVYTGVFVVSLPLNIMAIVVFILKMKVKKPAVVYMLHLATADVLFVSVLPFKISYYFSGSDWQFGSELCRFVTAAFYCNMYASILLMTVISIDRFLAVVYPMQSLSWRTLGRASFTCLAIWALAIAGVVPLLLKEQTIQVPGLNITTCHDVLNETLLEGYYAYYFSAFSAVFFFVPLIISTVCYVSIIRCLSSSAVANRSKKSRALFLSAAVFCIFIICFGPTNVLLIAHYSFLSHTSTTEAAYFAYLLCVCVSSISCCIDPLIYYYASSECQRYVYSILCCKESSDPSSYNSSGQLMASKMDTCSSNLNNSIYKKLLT
In words: In vitro thrombin receptor binding assay (CHRF membranes). The note with it: tritiated 721-40 radioligand, read-out: Bndg IC50 (Thrombin receptor binding). On the procedure:
In Vitro Thrombin Receptor Binding Assay
CHRF membranes (Jones, Biochim. Biophys. Acta 1992, 1136, 272) are thawed from −70° C., centrifuged at maximum speed for 5 min, washed twice with binding buffer (50 mM HEPES containing 5 mM MgCl2 and 0.1% BSA), and re-suspended in binding buffer (25 μg/[…]). 100 μL of membranes are added to the 24-Wallac plates and delivered to the Tomtech apparatus. In a typical experiment, 6 μL of samples (from a 125 μg/mL intermediary plate, 20% DMSO) and 44 μL buffer are delivered to the plates (final conc. of compounds is 3.7 μg/mL, 0.6% DMSO). Similarly, 6 μL 20% DMSO and 44 μL buffer are delivered to both column 1 (NSB) and column 12 (TB). 10 μL Ser-pFPhe-Har-Leu-Har-Lys-Tyr-NH2 (721–40; 500 μM in deionized water) is added to column 1. 50 μL tritiated 721–40 (specific activity 46 Ci/mmol) is added to all the wells. The plates are mixed well for 20 seconds, incubated for 30 min,and then harvested with 10 mM HEPES/138 mM NaCl using the Skatron harvester. The filters (GF/C Brandel FPXLR 296) are presoaked 3 h in 0.5% polyethylenimine in HEPES/0.1M N-acetylglucosamine) are set in saran wrap and dried for 3 min in the microwave, and placed in sample bags (Wallac 1450-432). 4.5 mL scintillation fluid (Wallac, Betaplate Scint 1205-440) is added. The bags are sealed, placed in filter cassettes (Wallac 1450-104), and analyzed on the microbeta counter.
(§1) Table 7 contains IC50 values (μM) of the compounds in a thrombin receptor binding assay, and IC50 values (μM) against platelet aggregation stimulated by thrombin.

In assay [2] the test system is gel-filtered platelets. Kind of assay: In vitro inhibition of thrombin-induced gel-filtered platelet aggregation. It is filed as cell-based. The note with it: human gel-filtered platelets, agonist thrombin 50 μL of 1 unit/mL, read-out: Thrmb IC50 (Thrombin-induced aggregation of gel-filtered platelets). Here is the method: In Vitro Inhibition of Thrombin-Induced Gel-Filtered Platelet Aggregation Assay
The percentage of platelet aggregation is calculated as an increase in light transmission of compound-treated platelet concentrate vs. control-treated platelet concentrate. Human blood is obtained from drug free, normal donors in tubes containing 0.13M sodium citrate. Platelet rich plasma (PRP) is collected by centrifugation of whole blood at 200×g for 10 min at 25° C. The PRP (5 mL) is gel filtered through Sepharose 2B (bed volume 50 mL), and the platelet count is adjusted to 2×10^7 platelets per sample. The following constituents are added to a siliconized cuvette: concentrated platelet filtrate and Tyrode's buffer (0.14M NaCl, 0.0027M KCl, 0.012M NaHCO3, 0.76 mM Na2HPO4, 0.0055M glucose, 2 mg/mL BSA and 5.0 mM HEPES @ pH 7.4) in an amount equal to 350 μL 50 μL of 20 mM calcium and 50 μL of the test compound. Aggregation is monitored in a BIODATA aggregometer for the 3 min following the addition of agonist (thrombin 50 μL of 1 unit/mL).
as §1

Regarding `N=C(N)NCCC[C@H](NC(=O)[C@H](Cc1ccc(Br)cc1)NC(=O)Nc1ccc2c(CN3CCCCC3)cn(Cc3c(Cl)cccc3Cl)c2c1)C(=O)NCc1ccccc1` [Compound 63], the results for the concentration for half-maximal inhibition (IC50) in assay [1] and in assay [2] (Platelet) were 0.13 µM and 0.7 µM, respectively.

Take `N=C(N)NCCC[C@H](NC(=O)[C@@H]1Cc2ccccc2CN1C(=O)Nc1ccc2c(CN3CCCC3)cn(Cc3ccc(F)cc3)c2c1)C(=O)NCc1ccccc1` [Compound 30]: the half-inhibitory concentration (IC50) (in general, the concentration that inhibits the measured activity by half) was 9 µM in assay [1] and greater than 10 µM in assay [2] (Platelet).

Regarding `COc1ccc(C[C@H](NC(=O)Nc2ccc3c(CN4CCCC4)cn(Cc4c(Cl)cccc4Cl)c3c2)C(=O)N[C@@H](CCCNC(=N)N)C(=O)NCc2ccccc2)cc1` [Compound 14], the half-inhibitory concentration (IC50) in assay [1] was determined as 1.4 µM; in assay [2] (Platelet), 0.49 µM.

Turning to `N=C(N)NCCC[C@H](NC(=O)[C@H](Cc1cscn1)NC(=O)Nc1ccc2c(CN3CCCC3)cn(Cc3c(Cl)cccc3Cl)c2c1)C(=O)NCc1ccccc1` [Compound 53], the IC50 in assay [1] stood at 8.8 µM; in assay [2] (Platelet), 1 µM.

Turning to `Cc1ccccc1Cn1cc(CN2CCCC2)c2cccc(NC(=O)N[C@@H](Cc3ccc(F)c(F)c3)C(=O)N[C@@H](CCN)C(=O)NCc3ccccc3)c21` [Compound 168], the values for the half-maximal inhibitory concentration (IC50) in assay [1] and in assay [2] (Platelet) were 64.3 µM and 8.3 µM, respectively.

Regarding `CCCN(CCC)Cc1cn(Cc2c(Cl)cccc2Cl)c2cc(NC(=O)N[C@@H](Cc3ccc(OC)cc3)C(=O)N[C@@H](CCCNC(=N)N)C(=O)NCc3ccccc3)ccc12` [Compound 41], the half-maximal inhibitory concentration (IC50) in assay [1] came to 10.4 µM; in assay [2] (Platelet) it was 4.8 µM.

In the case of `N=C(N)NCCC[C@H](NC(=O)[C@H](Cc1ccc(F)cc1)NC(=O)Nc1ccc2c(CN3CCCC3)cn(Cc3ccc(F)cc3)c2c1)C(=O)NCc1ccccc1` [Compound 26], the results for the IC50 in assay [1] and in assay [2] (Platelet) were 4.3 µM and 0.55 µM, respectively.

In the case of `NCCC[C@H](NC(=O)[C@H](Cc1ccc(F)c(F)c1)NC(=O)Nc1ccc2c(CN3CCCC3)cn(Cc3c(Cl)cccc3Cl)c2c1)C(=O)N1CCCCC1` [Compound 115], the half-inhibitory concentration (IC50) in assay [1] is 0.37 µM; in assay [2] (Platelet), 2.7 µM.

As to `NCC[C@H](NC(=O)[C@H](CCc1ccccc1)NC(=O)Nc1ccc2c(CN3CCCC3)cn(Cc3c(Cl)cccc3Cl)c2c1)C(=O)NCc1ccccc1` [Compound 128], the figures for the IC50 in assay [1] and in assay [2] (Platelet) were 3.4 µM and 18.8 µM, respectively.

On to `NCC[C@H](NC(=O)[C@H](Cc1ccc(F)c(F)c1)NC(=O)Nc1cccc2c1c(CN1CCCC1)cn2Cc1c(Cl)cccc1Cl)C(=O)NCc1ccccc1` [Compound 165], for which the IC50 in assay [1] came out at 49.6 µM; in assay [2] (Platelet), 4.8 µM.

As for `N=C(N)NCCC[C@H](NC(=O)[C@H](Cc1cccc(F)c1)NC(=O)Nc1ccc2c(CN3CCCC3)cn(Cc3c(Cl)cccc3Cl)c2c1)C(=O)NCc1ccc(S(N)(=O)=O)cc1` [Compound 92], the IC50 in assay [1] was 1 µM; in assay [2] (Platelet), 1.3 µM.

As for `N=C(N)NCCC[C@@H](NC(=O)[C@H](Cc1ccc(F)c(F)c1)NC(=O)Nc1ccc2c(CN3CCCC3)cn(Cc3c(Cl)cccc3Cl)c2c1)C(=O)NCc1ccccc1` [Compound 69], the IC50 in assay [1] turned out to be 0.62 µM; in assay [2] it was 0.31 µM.

With `NCC[C@H](NC(=O)[C@H](Cc1ccc(F)c(F)c1)NC(=O)Nc1ccc2c(CN3CCSC3)cn(Cc3c(Cl)cccc3Cl)c2c1)C(=O)NCc1ccccc1` [Compound 154], the IC50 was found to be 0.75 µM in assay [1] and 12.9 µM in assay [2] (Platelet).

Take `O=C(Nc1ccc2c(CN3CCCC3)cn(Cc3c(Cl)cccc3Cl)c2c1)N[C@@H](Cc1ccc(F)c(F)c1)C(=O)N[C@@H](Cc1ccncc1)C(=O)NCc1ccccc1` [Compound 105]: the figures for the IC50 in assay [1] and in assay [2] (Platelet) were 7.5 µM and 0.64 µM, respectively.

Consider `NC(N)=NCCC[C@H](NC(=O)[C@H](Cc1ccc(I)cc1)NC(=O)Nc1ccc2c(CN3CCCCC3)cn(Cc3c(Cl)cccc3Cl)c2c1)C(=O)NCc1ccccc1` [Compound 85], for which the figures for the half-maximal inhibitory concentration (IC50) in assay [1] and in assay [2] (Platelet) were 1.6 µM and 4.8 µM, respectively.

`NCC[C@H](NC(=O)[C@H](Cc1ccc(F)c(F)c1)NC(=O)Nc1ccc2c(CN3CCCC3)cn(Cc3c(Cl)cccc3Cl)c2c1)C(=O)NCCc1c[nH]cn1` [Compound 142]: the values for the IC50 in assay [1] and in assay [2] (Platelet) were 0.48 µM and 1.9 µM, respectively.

Turning to `O=C(Nc1ccc2c(CN3CCCC3)cn(Cc3c(Cl)cccc3Cl)c2c1)N[C@@H](Cc1ccc(F)c(F)c1)C(=O)N[C@@H](Cc1c[nH]cn1)C(=O)NCc1ccccc1` [Compound 72], the IC50 in assay [1] came to 1.3 µM; in assay [2] (Platelet) it was 0.46 µM.

Take `N=C(N)NCCC[C@H](NC(=O)[C@@H](NC(=O)Nc1ccc2c(CN3CCCC3)cn(Cc3c(Cl)cccc3Cl)c2c1)C(c1ccccc1)c1ccccc1)C(=O)NCc1ccccc1` [Compound 56]: the 50% inhibitory concentration (IC50) is 11.4 µM in assay [1] and 3.8 µM in assay [2] (Platelet).

As to `NCCC[C@H](NC(=O)[C@H](Cc1ccc(F)c(F)c1)NC(=O)Nc1ccc2c(CN3CCCC3)cn(Cc3c(Cl)cccc3Cl)c2c1)C(=O)NCc1cccnc1` [Compound 116], the half-inhibitory concentration (IC50) in assay [1] came to 0.41 µM; in assay [2] (Platelet) it was 1.1 µM.

As for `NCCNC(=O)[C@H](Cc1cccs1)NC(=O)[C@H](Cc1ccc(Cl)cc1)NC(=O)c1ccc2c(CN3CCCC3)cn(Cc3c(Cl)cccc3Cl)c2c1` [Compound 177], the results for the concentration for half-maximal inhibition (IC50) in assay [1] and in assay [2] (Platelet) were 0.62 µM and 4.4 µM, respectively.

With `NCC[C@H](NC(=O)[C@H](Cc1ccc(F)c(F)c1)NC(=O)Nc1ccc2c(CN3CCCC3)cn(Cc3c(Cl)cccc3Cl)c2c1)C(=O)NCc1ccccc1` [Compound 102, Benzenepropanamide, N-[(1S)-3-amino-1-[[(phenylmethyl)amino]carbonyl]propyl]-α-[[[[1-[(2,6-dichlorophenyl)methyl]-3-(1-pyrrolidinylmethyl)-1H-indol-6-yl]amino]carbonyl]amino]-3,4-difluoro-, (αS)-], the IC50 in assay [1] stood at 0.5 µM; in assay [2] (Platelet), 0.16 µM.

As for `NCC[C@H](NC(=O)[C@H](Cc1cccnc1)NC(=O)Nc1ccc2c(CN3CCCC3)cn(Cc3c(Cl)cccc3Cl)c2c1)C(=O)NCc1ccccc1` [Compound 130], the IC50 in assay [1] is 4.8 µM; in assay [2] (Platelet) it was 27.8 µM.

Regarding `N=C(N)NCCC[C@H](NC(=O)[C@H](Cc1ccc(F)c(F)c1)NC(=O)Nc1ccc2c(CN3CCCC3)cn(Cc3c(Cl)cccc3Cl)c2c1)C(=O)NCc1ccncc1` [Compound 62], the IC50 in assay [1] was 0.03 µM; in assay [2] (Platelet), 1.26 µM.

For `NCCC[C@H](NC(=O)[C@H](Cc1ccc(F)c(F)c1)NC(=O)Nc1ccc2c(CN3CCCC3)cn(Cc3c(Cl)cccc3Cl)c2c1)C(=O)NCc1ccncc1` [Compound 98], the results for the IC50 in assay [1] and in assay [2] (Platelet) were 2.3 µM and 1.8 µM, respectively.

In the case of `N=C(N)NCCC[C@H](NC(=O)[C@H](Cc1ccc(F)c(F)c1)NC(=O)Nc1ccc2c(CN3CCCC3)cn(Cc3c(Cl)cccc3Cl)c2c1)C(=O)NCCCCCN` [Compound 81], the concentration for half-maximal inhibition (IC50) in assay [1] is 0.07 µM; in assay [2] (Platelet), 0.41 µM.

Take `COC(=O)C(NC(=O)C(CCN)NC(=O)C(Cc1ccc(F)c(F)c1)NC(=O)Nc1ccc2c(CN3CCCC3)cn(Cc3c(Cl)cccc3Cl)c2c1)c1ccccc1` (centres unmarked) [Compound 160]: in assay [2], the IC50 was found to be 0.6 µM.

With `NCCC(NC(=O)C(Cc1ccc(F)c(F)c1)NC(=O)Nc1ccc2c(CN3CCCC3)cn(Cc3c(Cl)cccc3Cl)c2c1)C(=O)NC(CO)c1ccccc1` (centres unmarked) [Compound 161], the 50% inhibitory concentration (IC50) in assay [2] amounted to 0.52 µM.

Take `N=C(N)NCCC[C@H](NC(=O)[C@H](CC1CCCCC1)NC(=O)Nc1ccc2c(CN3CCCC3)cn(Cc3ccc(F)cc3)c2c1)C(=O)NCc1ccccc1` [Compound 25]: the IC50 in assay [2] worked out at 37.1 µM.
